In patent US20260224674A1, “COMPOSITIONS COMPRISING PEDF-DERIVED SHORT PEPTIDES AND MESENCHYMAL STEM CELLS FOR BONE/CARTILAGE REGENERATION” (BRIM Biotechnology, Inc., priority 2022, published 2026):

Tests used:
[1] = test system: type X collagen; experiment: Type X collagen immunohistochemistry (IHC) staining of the murine knee joint; type: in vivo, mouse; conditions: ACLT surgery induced OA mice
Protocol: (§1) The OA murine model is induced by anterior cruciate ligament (ACLT) surgery. In brief, a medial arthrotomy was performed. With the knee in full flexion, the patella was dislocated laterally, the anterior cruciate ligament (ACLT) was transected, and then the wounds were closed.
(§2) The ACLT surgery was performed on the unilateral knees of each mouse for 2 months prior to the treatments. Twenty mice were randomly divided into 5 groups: (i) non-treated group [n=3]; (ii) vehicle-treated group [n=4]; (iii) PDSP-treated group [n=5], (iv) vehicle combined with IPFP-MSC-treated group [n=3]; (v) PDSP combined with IPFP-MSC-treated group [n=5] in ACLT surgery induced OA groups, while the knees without surgery serve as sham-operated group [n=4]. At eight weeks after ACLT surgery (first injection), the knee joints of the non-treated, vehicle-treated, or PDSP-treated groups were intra-articular injected, respectively, with 0.01 mL PBS, vehicle, or PDSP, while those of the vehicle or PDSP combined with IPFP-MSC groups were injected with hMSCs in 0.01 mL. MSCs were intra-articular injected at the first treatment only (i.e., at 8 weeks). For the second treatments (two weeks after MSC injections or 10 weeks after ACLT surgery), those of the vehicle or PDSP combined with IPFP-MSC injection groups were injected with 0.01 mL vehicle or PDSP. […]

[2] = test system: ACLT surgery induced osteoarthritis mouse model; experiment: Safranin O and H&E histological staining of the murine knee joints; type: in vivo; conditions: ACLT surgery induced OA mice; compared with non-treated OA groups
Protocol: as §1, §2

[3] = test system: ACLT surgery induced osteoarthritis mouse model; experiment: OARSI histologic scoring of cartilage degradation in ACLT surgery induced OA murine model; type: in vivo
Protocol: as §1, §2

[4] = test system: type II collagen; experiment: Type II collagen immunohistochemistry (IHC) staining of the murine knee joint; type: in vivo, mouse; conditions: ACLT surgery induced OA mice; compared with non-treated and vehicle-treated OA groups
Protocol: as §1, §2

[5] = test system: human bone marrow-derived mesenchymal stem cells (hBM-MSC); experiment: hBM-MSC spheroid chondrogenesis, Alcian Blue staining at day 14; type: cell-based; conditions: PDSP 10 μM, chondrogenic differentiation medium with TGFβ1 10 ng/ml
Protocol: To shed light on possible mechanisms for the effects of PDSP chondrogenesis, further experiments were conducted to assess the effects of PDSP on MSC. The MSC used in this study are human bone marrow-derived mesenchymal stem cells (hBM-MSC) from Gibco (StemPro™ BM Mesenchymal Stem Cells). […] Human bone marrow MSC spheroids were cultured with chondrogenic differentiation medium, with or without TGFβ1 and with or without PDSP. The media were changed every 3 days. On day 14, the cartilage spheroids were collected for evaluation. The various media compositions are as follows (the base medium is a high-glucose DMEM supplemented with 1×10^−7M dexamethasone, 1×10^−3M sodium pyruvate, 1.7×10^−4M L-ascorbic acid-2-phosphate, 3.5×10^−4M proline, 5 mL ITS+Premix in 500 mL medium, and 1% antibiotic): […]

Question: For “SLGAEQRTESIIHRALYYDLISSPDIHGT (listed as Homo sapiens) [PDSP, PEDF-derived short peptide]”, which “Type X collagen signals (IHC)” value [1] is on record?
Answer: decreased

Question: And the “Cartilage loss and surface irregularity in the medial and lateral compartments (safranin O and H&E staining)” value [2]?
Answer: less cartilage loss and surface irregularity

Question: And the OARSI scores ([3]; ACLT surgery induced OA groups, text values with their spread (SEM per Table 2))?
Answer: 3.47±0.19

Question: What about the “The histologic scoring of murine OA (OARSI score), Average” value ([3]; ACLT surgery induced osteoarthritis mice, intra-articular injection at 8 and 10 weeks after surgery, average over animals) of the same sequence?
Answer: 3.47

Question: And the “Expression of type II collagen (IHC)” value [4]?
Answer: increased

Question: What about the “Cartilage spheroids size (total area)” value [5] of the same sequence?
Answer: increase the cartilage spheroids size

Question: What about the “Chondrogenesis (Alcian blue positive area; differentiation of hBM-MSC into chondrocytes)” value [5] of the same sequence?
Answer: promote chondrogenesis
